Here are results for three compounds from US9290440B2, “Bicyclic compound” (TOA EIYO LTD., priority 2012, dated 2016).

Test [1] concerns the target T1, human sGC α subunit and β subunit (Homo sapiens, UniProt Q02153).
T1 construct: expressed in transfected cells
T1 sequence (Q02153 1-619): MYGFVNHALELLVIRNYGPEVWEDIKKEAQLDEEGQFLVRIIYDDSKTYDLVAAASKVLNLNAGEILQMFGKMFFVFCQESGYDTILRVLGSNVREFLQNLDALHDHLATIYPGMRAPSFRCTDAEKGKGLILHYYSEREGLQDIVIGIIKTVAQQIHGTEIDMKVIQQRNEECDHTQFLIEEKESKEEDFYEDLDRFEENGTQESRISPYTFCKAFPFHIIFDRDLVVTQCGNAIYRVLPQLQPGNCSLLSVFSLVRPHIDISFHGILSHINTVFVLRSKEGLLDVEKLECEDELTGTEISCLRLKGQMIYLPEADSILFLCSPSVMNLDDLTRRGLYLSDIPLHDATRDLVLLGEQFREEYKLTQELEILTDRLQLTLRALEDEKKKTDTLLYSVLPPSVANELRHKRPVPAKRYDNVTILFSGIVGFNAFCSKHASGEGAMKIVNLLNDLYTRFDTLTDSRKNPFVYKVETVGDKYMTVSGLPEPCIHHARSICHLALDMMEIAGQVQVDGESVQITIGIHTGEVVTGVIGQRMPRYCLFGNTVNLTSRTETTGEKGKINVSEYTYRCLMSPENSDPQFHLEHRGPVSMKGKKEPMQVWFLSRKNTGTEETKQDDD
T1 sequence (Q02108 1-690 partner): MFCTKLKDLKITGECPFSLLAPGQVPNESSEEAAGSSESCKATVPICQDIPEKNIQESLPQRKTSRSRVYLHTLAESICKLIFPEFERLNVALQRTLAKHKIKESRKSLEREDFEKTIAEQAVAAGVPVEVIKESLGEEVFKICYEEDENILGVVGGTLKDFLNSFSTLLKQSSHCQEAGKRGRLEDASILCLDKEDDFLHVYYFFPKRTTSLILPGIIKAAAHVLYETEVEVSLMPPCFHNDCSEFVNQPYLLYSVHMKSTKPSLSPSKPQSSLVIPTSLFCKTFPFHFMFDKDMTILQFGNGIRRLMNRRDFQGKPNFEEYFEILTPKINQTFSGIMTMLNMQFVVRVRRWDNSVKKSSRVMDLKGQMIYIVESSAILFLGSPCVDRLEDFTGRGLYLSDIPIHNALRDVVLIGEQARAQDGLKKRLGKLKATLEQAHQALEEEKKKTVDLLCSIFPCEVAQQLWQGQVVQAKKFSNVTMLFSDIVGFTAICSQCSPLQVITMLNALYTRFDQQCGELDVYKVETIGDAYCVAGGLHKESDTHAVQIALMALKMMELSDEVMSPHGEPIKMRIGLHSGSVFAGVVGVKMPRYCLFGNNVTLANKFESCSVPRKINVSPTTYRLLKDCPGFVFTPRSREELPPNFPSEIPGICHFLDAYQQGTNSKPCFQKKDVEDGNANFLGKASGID
The test is described as follows: Maximum effect of sGC activating function (Ca2+ fluorescence in CHO-K1 cells expressing human sGC and mouse CNGA2). The class given is cell-based. To be noted: increase ratio of sGC activity vs control solution at 10 μmol/L test compound. As for the experimental part: For the assay, Chinese hamster ovary cells (CHO-K1 cells) in which human sGC α subunit and β subunit and mouse cyclic nucleotide gated channel (CNGA2) are stably expressed were used.
CHO-K1 cells in which human sGC and mouse CNGA2 are stably expressed were cultured at 37° C. in F-12 medium containing 10% (v/v) fetal bovine serum (FBS), penicillin (100 U/mL), streptomycin (100 μg/mL), G418 (250 μg/mL), and zeocin (250 μg/mL). The cells were suspended in the culture medium and seeded onto a 96-well plate, and then cultured at 37° C. for 24 hours. After washing with assay buffer 1 (140 mmol/L sodium chloride, 5 mmol/L potassium chloride, 0.5 mmol/L magnesium chloride, 0.01 mmol/L calcium chloride, 10 mmol/L glucose, 0.4 mmol/L magnesium sulfate, 10 mmol/L 4-(2-hydroxyethyl)piperazin-1-ylethane sulfonic acid, and 125 μmol/L sulfinpyrazone, pH 7.4), an indicator solution in which FURA2-AM as a fluorescent Ca^2+ indicator is dissolved at concentration of 5 μmol/L in assay buffer 1 was added followed by culture for 60 minutes at 37° C. The indicator solution was removed. After washing with assay buffer 1, the test compound solution was added and incubated for 10 minutes at room temperature. The plate was placed in a fluorometer (Flex Station II, Molecular Devices, LLC), and then the intracellular calcium concentration was measured as fluorescence intensity ratio which is obtained from each excitation wavelength (excitation wavelength of 340 nm and 380 nm and detection wavelength of 510 nm).
The test compound solution was prepared by dissolving each of the test compounds in DMSO to a concentration of 10 mmol/L, and then adding the assay buffer 2 (140 mmol/L sodium chloride, 5 mmol/L potassium chloride, 0.5 mmol/L magnesium chloride, 1 mmol/L calcium chloride, 10 mmol/L glucose, 0.4 mmol/L magnesium sulfate, 10 mmol/L 4-(2-hydroxyethyl)piperazin-1-ylethane sulfonic acid, 125 μmol/L sulfinpyrazone, 100 μmol/L isobutylmethylxanthine, 10 μmol/L 1H-[1,2,4]-oxadiazole[4,3-a]quinoxalin-1-one (hereinbelow, ODQ), pH 7.4) for dilution to have test concentration of 10 μmol/L. For the evaluation of a case in which ODQ is not contained, the same evaluation was performed except that ODQ is excluded from assay buffer 2. As a control solution, a DMSO solution was used instead of the test compound solution.
The activity of the test compound corresponds to the increase ratio (%) of the sGC activity at the time of adding the test compound solution with respect to the sGC activity at the time of adding the control solution, and it was calculated by dividing the fluorescence intensity ratio at the time of adding the test compound by the fluorescence intensity ratio of the control solution and subtracting the sGC activity (100%) at the time of adding the control solution.
In this assay, intracellular cGMP concentration increases as sGC is activated, and according to opening of CNGA2 following the increase of cGMP, intracellular Ca^2+ concentration increases. Thus, SGC activation can be measured by following the change in intracellular Ca^2+ concentration. […] Thus, in the absence of ODQ, the maximum sGC activating function including the heme-dependent activation can be evaluated while the heme-independent sGC activating function can be evaluated in the presence of ODQ.

Test [2] relates to abdominal aorta ring specimen. Nature of the test: Evaluation of blood vessel relaxing function (phenylephrine-contracted abdominal aorta ring). To be noted: relaxation of rat abdominal aorta contracted with 1 μmol/L phenylephrine; without vs with 10 μmol/L ODQ. As for the experimental part: The representative compounds of the present invention were evaluated by blood vessel relaxing function according to the following Test Example. In the assay, bleeding from the upper part of a heart of a rat (male, SD) was performed under anesthesia with pentobarbital (30 mg/kg) and then abdominal aorta was extracted. The connecting tissue adhered around blood vessel was removed from the abdominal aorta in an ice-cooled Krebs-Henseleit solution (KH solution) (118 mmol/L sodium chloride, 4.7 mmol/L potassium chloride, 1.2 mmol/L magnesium sulfate, 1.2 mmol/L potassium dihydrogen phosphate, 25 mmol/L sodium hydrogen carbonate, 2.5 mmol/L calcium chloride, and 10 mmol/L glucose, pH 7.4). After that, a ring specimen with length of 2 mm was prepared and fixed in 5 mL organ bath filled with a KH solution. The KH solution was kept at 37° C. and aerated with a mixture gas of 95% O2 and 5% CO2. The specimen was stabilized for 1 hour with static tension of 1 g. The KH solution was exchanged twice during that time. The tension on the specimen was recorded on a multi-channel recorder via pickup and amplifier. After the stabilization of the specimen, contraction was caused by using 1 μmol/L phenylephrine (Phe), and cumulative administration of each compound (0.001, 0.01, 0.03, 0.1, 0.3, 1, 3, 10, 30, 100, 1000, 10000 nmol/L) was performed. For the evaluation of a case in which 1H-1,2,4-oxadiazole-(4,3a)-quinoxalin-1-one (ODQ) is contained, 10 μmol/L ODQ was added 10 minutes before the Phe addition, and the same evaluation as above was performed.
EC50 value was calculated using four-parameter logistics model using Assay Explorer (Accelrys). The test compound solution was dissolved in DMSO such that the concentration of each test compound is 1000 times the final concentration.

[3] abbreviates: ODQ not contained, read-out: Emax (%) ODQ− (Heme-dependent).
Setting [4] is: with 10 μmol/L ODQ, read-out: Emax (%) ODQ+ (Heme-independent).

Like-named read-outs stand apart in the source and are kept apart here.

Take `O=C(O)CCCCN(CCc1ccccc1OCc1ccc(C2CC2)cc1)C1CCCc2cc(C(=O)O)ccc21` (stereo not drawn) [Example 42, 5-{N-(4-Carboxybutyl)-N-[2-[2-(4-cyclopropylbenzyloxy)phenyl]ethyl]amino}-5,6,7,8-tetrahydronaphthalene-2-carboxylic acid]: the maximum response (Emax) (as a rule, the maximal effect, on the per cent scale that the assay sets) at 10 µM in test [1] (setting [3]) is 86.7%; in test [1] (setting [4]) it was 122%. Further, the “EC50 Ratio (ODQ−/ODQ+)” value in test [2] is 4.3.

As for `CC(C)c1ccc(COc2ccccc2CCN(CCCCC(=O)O)C2CCCc3cc(C(=O)O)ccc32)cc1` (stereo not drawn) [Example 43, 5-{N-(4-Carboxybutyl)-N-[2-[2-(4-isopropylbenzyloxy)phenyl]ethyl]amino}-5,6,7,8-tetrahydronaphthalene-2-carboxylic acid], the Emax at 10 µM in test [1] (setting [3]) came to 90.3%; in test [1] (setting [4]), 107%. Moreover, in test [2], the “EC50 Ratio (ODQ−/ODQ+)” value came out at 5.5.

Turning to `O=C(O)CCCCN(CCc1ccccc1OCc1ccc2c(c1)CCC2)C1CCCc2cc(C(=O)O)ccc21` (stereo not drawn) [Example 46, 5-{N-(4-Carboxybutyl)-N-[2-[2-(indane-5-ylmethoxy)phenyl]ethyl]amino}-5,6,7,8-tetrahydronaphthalene-2-carboxylic acid], the Emax at 10 µM in test [1] (setting [3]) turned out to be 81.3%; in test [1] (setting [4]) it was 123%. For the same compound, the “EC50 Ratio (ODQ−/ODQ+)” value in test [2] was 5.2.
